Measured values: US20100260675A1, “Oxytocin Receptor Antagonists and Their Use for the Treatment of Pulmonary Related Diseases” (priority 2004, published 2010)

Legend:
[1] = tested on: Oxytocin Receptor mRNA in trachea; assay: Oxytocin Receptor RNA expression in trachea, in vivo model of acute asthma (Real Time PCR); details: mice immunized i.p. day 1 and 8, challenged intranasally days 22-24, trachea day 25
Protocol: The RNA expression of Oxytocin Receptor in an in vivo model of acute asthma was tested. The mice were immunized with ovalbumin intraperitoneal on day 1 and day 8 and then challenged intranasally on days 22, 23 and 24. On day 25, the mice were euthanized. The trachea were extracted for RNA isolation and used in Real Time PCR analysis for Oxytocin Receptor.

[2] = target: T1, Oxytocin Receptor on human airway smooth muscle cells (HASMC) (Homo sapiens, UniProt P30559); assay: Calcium influx in human airway smooth muscle cells after addition of oxytocin; assay type: cell-based; details: FIG. 4
T1 construct: the Oxytocin Receptor expressed on the surface of human airway smooth muscle cells is functional; endogenous in cells; host or cells: primary human airway smooth muscle cells (HASMC)
T1 sequence (P30559 1-389): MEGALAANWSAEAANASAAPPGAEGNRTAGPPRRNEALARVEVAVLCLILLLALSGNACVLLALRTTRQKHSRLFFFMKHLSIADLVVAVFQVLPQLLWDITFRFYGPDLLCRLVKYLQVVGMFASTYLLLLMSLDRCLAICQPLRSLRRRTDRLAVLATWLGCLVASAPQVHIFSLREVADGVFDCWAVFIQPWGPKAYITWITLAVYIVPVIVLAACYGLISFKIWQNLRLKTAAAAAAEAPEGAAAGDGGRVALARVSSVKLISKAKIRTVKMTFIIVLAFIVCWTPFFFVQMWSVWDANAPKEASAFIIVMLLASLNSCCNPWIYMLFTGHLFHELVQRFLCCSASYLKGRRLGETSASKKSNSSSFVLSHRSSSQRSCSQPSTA
Protocol: In order to determine whether the Oxytocin Receptor expressed on the surface of human airway smooth muscle cells is functional, the amount of influx of calcium was measured. HASMC were serum starved and then either unstimulated or stimulated with IL-13 (50 ng/ml) for 24 hours. The amount of calcium that mobilized Into the cells was measured after addition of oxytocin (100 nM or 500 nM).

[3] = tested on: Oxytocin Receptor (OXTR) mRNA in primary human airway smooth muscle cells; assay: Real Time PCR analysis of oxytocin receptor mRNA in cytokine-stimulated primary human airway smooth muscle cells; assay type: cell-based; details: for level of OXTR mRNA normalized to 18S mRNA and relative to untreated control (0 hour timepoint): primary HASMC from normal donors, 50 ng/ml; for induced expression of the Oxytocin Receptor normalized to 18S and relative to untreated control (0 hour timepoint): primary HASMC from two normal donors, 10 ng/ml
Protocol: In order to confirm the microarray finding by an independent means, Real Time PCR technology was employed. Primary human airway smooth muscle cells from “normal” donors were cultured with IL-13 or a naturally occurring mutant form IL-13R130Q (associated with high serum IgE levels) for 0, 6 hours or 18 hours at 50 ng/ml after allowing the cell to rest for 24 hours. Total RNA was isolated, reverse transcribed and used in Real Time PCR analysis for oxytocin receptor using the Applied Biosystems Gene Expression Assay (ID number Hs00168573_m1) on the ABI PRISM® 7900HT Sequence Detection System. At 6 hours, the level of OXTR mRNA normalized to 18S mRNA and relative to untreated control (i.e., 0 hour time point) was 1.95 (Std Dev. 0.41) when cells were stimulated with WT IL-13 and 1.79 (Std Dev. 0.22) when stimulated with R130Q. At 18 hours, the level of OXTR mRNA normalized to 18S mRNA and relative to untreated control (i.e., 0 hour timepoint) was 2.02 (Std Dev. 0.42) when the cells were stimulated with WT IL-13 and 3.58 (Std Dev. 0.74) when stimulated with R130Q.
Primary human airway smooth muscle cells from two “normal” donors were cultured with tumor necrosis factor alpha (TNFα) for 0, 6 hours or 18 hours at 10 ng/ml after resting the cells for 24 hours. Total RNA was isolated, reverse transcribed and used in Real Time PCR analysis for the Oxytocin Receptor. TNFα induced the expression of the Oxytocin Receptor by 4.88 (Std Dev. 1.13) at 6 hours and 7.06 (Std. Dev. 1.42) at the 18-hour time point normalized to 18S and relative to untreated control (i.e., 0 hour timepoint).

Compound: ovalbumin: allergen used to immunize and challenge mice in the acute asthma model
- Oxytocin Receptor mRNA in trachea compared to PBS control [1]: 1.5 fold

Compound: IL-13: wild-type interleukin 13, Th2 derived cytokine used to stimulate airway smooth muscle cells
- effect on oxytocin-induced calcium influx in HASMC ([2]; IL-13 50 ng/ml for 24 hours, at low concentrations of oxytocin): further enhances calcium influx
- level of OXTR mRNA normalized to 18S mRNA and relative to untreated control (0 hour timepoint) ([3]; 6 hours): 1.95 (Std Dev. 0.41)
- level of OXTR mRNA normalized to 18S mRNA and relative to untreated control (0 hour timepoint) ([3]; 18 hours): 2.02 (Std Dev. 0.42)

Compound: TNFα
- induced expression of the Oxytocin Receptor normalized to 18S and relative to untreated control (0 hour timepoint) ([3]; 18-hour time point): 7.06 (Std. Dev. 1.42)
- induced expression of the Oxytocin Receptor normalized to 18S and relative to untreated control (0 hour timepoint) ([3]; 6 hours): 4.88 (Std Dev. 1.13)

Compound: CC[C@H](C)[C@@H]1NC(=O)[C@H](Cc2ccc(O)cc2)NC(=O)[C@@H](N)CSSC[C@@H](C(=O)N2CCC[C@H]2C(=O)N[C@@H](CC(C)C)C(=O)NCC(N)=O)NC(=O)[C@H](CC(N)=O)NC(=O)[C@H](CCC(N)=O)NC1=O [oxytocin]
- Ca influx in human airway smooth muscle cells ([2]; serum-starved HASMC, oxytocin 100 nM or 500 nM): induces Ca influx
